What was measured:
human MCHR1 [1] = target: T1, human MCHR1 (Homo sapiens, UniProt Q99705); assay: 125I-MCH competitive binding assay (SPA) with clone 43 membranes; conditions: competition with 125I-MCH, clone 43 membranes (AV12 cells expressing human MCHR1); Ki from IC50 by Cheng-Prusoff; tested in duplicate
T1 construct: The full-length cDNA for human MCHR1 was cloned from a human adult brain cDNA library; expressed in transfected cells; host or cells: AV12 cells previously transfected with Gα15
T1 sequence (Q99705 whole entry): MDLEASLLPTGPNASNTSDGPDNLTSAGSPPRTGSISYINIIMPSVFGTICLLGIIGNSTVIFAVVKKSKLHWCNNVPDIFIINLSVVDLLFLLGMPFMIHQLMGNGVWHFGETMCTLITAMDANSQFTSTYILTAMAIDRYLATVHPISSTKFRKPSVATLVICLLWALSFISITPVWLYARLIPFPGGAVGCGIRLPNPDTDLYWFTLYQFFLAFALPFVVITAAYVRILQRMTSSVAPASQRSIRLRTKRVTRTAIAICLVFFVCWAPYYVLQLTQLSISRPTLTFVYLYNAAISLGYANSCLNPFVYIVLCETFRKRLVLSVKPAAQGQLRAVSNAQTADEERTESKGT
Source text: (§1) The full-length cDNA for human MCHR1 was cloned from a human adult brain cDNA library (Edge Biosystems, Cat. 38356) by standard polymerase chain reaction (PCR) methodology employing the following primers: sense, 5′-GCCACCATGGACCT GGAAGCCTCGCTGC-3′; anti-sense, 5′-[…]-3′.
(§2) In order to generate cell lines stably expressing MCHR1, the insert was then subcloned into the Xba I and Not I sites of pcDNA(+)-3.1-neomycin (Invitrogen). After purification by Qiagen Maxi-prep kit (QIAGEN, Inc.), the plasmid was transfected by Fugene 6 (Roche Applied Science) into AV12 cells that had been previously transfected with the promiscuous G protein Gα15. The transfected cells were selected by
(§3) Both the ^125I-MCH binding and functional GTPγ^35S binding assays employed membranes isolated from a clone designated as clone 43. Typically, cells from 20 confluent T225 flasks were processed by washing the monolayers in cold phosphate-buffered saline (PBS), scraping the cells into same and re-suspending the cell pellet in 35 ml of 250 mM Sucrose, 50 mM HEPES, pH 7.5, 1 mM MgCl2, 24 μg/ml DNase I, and protease inhibitors (1 Complete® tablet, per 50 ml of buffer prepared, Roche Diagnostics). After incubation on ice for 5 min, cells were disrupted with 20–25 strokes of a Teflon/Glass homogenizer attached to an overhead motorized stirrer, and the homogenate was centrifuged at 40,000 rpm in Beckman Type 70.1 Ti rotor. The pellets were re-suspended in 250 mM Sucrose, 50 mM HEPES, pH 7.5, 1.5 mM CaCl2, 1 mM MgSO4 and protease inhibitors by Teflon/Glass homogenization to achieve a protein concentration of ˜3–5 mg/ml (Pierce BCA assay with Bovine serum albumin as standard).
Aliquots were stored at −70° C. Binding of compounds to MCHR1 was assessed in a competitive binding assay employing ^125I-MCH, compound and clone 43 membranes. Briefly, assays are carried out in 96-well Costar 3632 white opaque plates in a total volume of 200 μl containing 25 mM HEPES, pH 7.5, 10 mM CaCl2, 2 mg/ml bovine serum albumin, 0.5% dimethyl sulfoxide (DMSO), 4 μg of clone 43 membranes, […] ^125I-MCH (NEN), 1.0 mg of wheat germ agglutinin scintillation proximity assay beads (WGA-SPA beads, Amersham) and a graded dose of test compound. Non-specific binding is assessed in the presence of 1 μM unlabeled MCH. Bound ^125I-MCH is determined by placing sealed plates in a Microbeta Trilux (Wallac) and counting after a 5 hr delay.
IC50 values (defined as the concentration of test compound required to reduce specific binding of ^125I-MCH by 50%) are determined by fitting the concentration-response data to a 4-parameter model (max response, min response, Hill coefficient, IC50) using Excel. Ki values are calculated from IC50 values using the Cheng-Prusoff approximation as described by Cheng et al. (Relationship between the inhibition constant (Ki) and the concentration of inhibitor which causes 50% inhibition (IC50) of an enzymatic reaction, Biochem. Pharmacol., 22: 3099–3108 (1973)). The Kd for ^125I-MCH is determined independently from a saturation binding isotherm.

human MCHR1 [2] = target: T1, human MCHR1; assay: Inhibition of MCH-stimulated GTPγ35S binding to clone 43 membranes (functional antagonism); format: biochemical; conditions: inhibition of GTPγ35S binding stimulated by 40 nM MCH (about EC90), Kb from IC50 by modified Cheng-Prusoff (Leff and Dougal), tested in duplicate
Source text: as §1, §2, §3
Functional antagonism of MCH activity is assessed by measuring the ability of test compound to inhibit MCH-stimulated binding of GTPγ^35S to clone 43 membranes. Briefly, assays are carried out in Costar 3632 white opaque plates in a total volume of 200 μl containing 25 mM Hepes, pH 7.5, 5 mM MgCl2, 10 μg/ml saponin, 100 mM NaCl, 3 μM GDP, 0.3 nM GTPγ^35S, 40 nM MCH (approximately equal to EC90), 20 μg of clone 43 membranes, 1.0 mg of wheat germ agglutinin scintillation proximity assay beads (WGA-SPA beads, Amersham) and a graded dose of test compound. The plates are sealed and left for 16–18 hrs at 4° C. After a 1 hr delay to allow plates to equilibrate to ambient temperature, bound GTPγ^35S is determined by counting in a Microbeta Trilux (Wallac).
IC50 values (defined as the concentration of test compound required to reduce MCH-stimulated GTPγ^35S binding by 50%) are determined by fitting the concentration-response data to a 4-parameter model (max response, min response, Hill coefficient, IC50) using Excel. Kb values are calculated from IC50 values using a modification of the Cheng-Prusoff approximation as described by Leff and Dougal (Further concerns over Cheng-Prusoff analysis, Trends Pharmacol. Sci. 14: 110–112 (1993)) after verifying competitive antagonism by Schild analysis. The EC50 for MCH alone is determined independently. The MCHR1 binding and functional activities of 24 compounds in the oxadiazole series (tested in duplicate) are shown in Table 1

[3] = system: Diet-induced obese male Long-Evans rats; assay: Block of MCH-stimulated food intake after intracerebroventricular injection; format: in vivo, rat; conditions: 82 nmol compound plus 2.1 nmol MCH, ICV; food intake at 2, 4 and 6 hours after injection; n=6 per group; p<0.05 vs. MCH alone; FIG. 1
Experimental: Diet-induced obese male Long-Evans rats (Harlan, Ind.) weighing 500–550 g at time of surgery were anesthetized with isoflurane. Stainless steel cannula guides (5 mm length, 26 gauge, Plastics One, Va.) were stereotaxically implanted in the lateral ventricle anteroposteriority: 0.8 mm caudal to bregma; and lateral: 1.5 mm from midline suture. Animals were individually housed in a temperature regulated room (24° C.) with a reverse 12 hour light/dark cycle (dark 10:00/22:00). Water and food (Teklad 95217, Harlan, Wis.) were available ad libitum. After surgery, animals were allowed to recover 7 days before experimental use. On test day, food was removed 1 hr prior to testing and animals (4 groups, n=6 per group) were injected between 0900 and 1000 with 5 μl of vehicle (artificial CSF), 2.1 nmol MCH, 82 nmol of compound of example 136, and MCH plus compound of example 136. Cumulative food intake was measured at 2, 4 and 6 hours after injection.

Compound | Ki (human MCHR1 [1]) [nM] | Kb (human MCHR1 [2]) [nM] | effect on orexigenic effect of exogenous MCH (cumulative food intake) [3]
c1ccc(OCCSCc2nnc(-c3ccc(OCCN4CCCCC4)cc3)o2)cc1 [drawing 45] | 9.2 | 19.8 | –
c1ccc(OCCSCc2nnc(-c3ccc(OCCCN4CCCC4)cc3)o2)cc1 [drawing 51] | 14.3 | 18.1 | –
CN(C)CCCOc1ccc(-c2coc(CSCCOc3ccccc3)n2)cc1 | 35 | 41.5 | –
C(=C\c1ccc(-c2nnc(CSCCOc3ccccc3)o2)cc1)/CN1CCCC1 [drawing 38] | 1.9 | 6 | –
CN(C)CCCOc1ccc(-c2nnc(CSCCOc3ccccc3)o2)cc1 [drawing 52] | 16 | 11.9 | –
O=C(NCCN1CCCCC1)Nc1ccc(-c2nnc(CSCCOc3ccccc3)o2)cc1 [drawing 42] | 5.6 | 14.7 | –
CN(C)CCCOc1ccc(-c2nnc(CSCc3cc4ccccc4s3)o2)cc1 | 48.4 | 139 | –
C(=C\c1ccc(-c2nnc(CSCCOc3ccccc3)o2)cc1)/CN1CCCC1 [Example 136, (E)-2-{[(2-phenoxyethyl)thio]methyl}-5-[4-(3-pyrrolidinopropen-1-yl)phenyl]-1,3,4-oxadiazole] | – | – | completely blocked the orexigenic effect of exogenous MCH
CC(C)N(CCCCOc1ccc(-c2nnc(CSCCOc3ccccc3)o2)cc1)C(C)C [drawing 59] | 63.3 | 52.1 | –
c1ccc(OCCSCc2ncc(-c3ccc(OCCN4CCCCC4)cc3)o2)cc1 | 11.6 | 7.3 | –

The remaining compounds from weak to strong by Ki (human MCHR1 [1]), led by results:

Ki (human MCHR1 [1]) [nM] | Kb (human MCHR1 [2]) [nM] | Compound | effect on orexigenic effect of exogenous MCH (cumulative food intake) [3]
2900 | 6890 | c1ccc(OCCSCc2nnc(-c3ccc(OCc4cccnc4)cc3)o2)cc1 [drawing 61] | –
140 | 145 | CC(C)N(CCCOc1ccc(-c2nnc(CSCCOc3ccccc3)o2)cc1)C(C)C [drawing 60] | –
37.9 | 31.3 | c1ccc(OCCSCc2nnc(-c3ccc(OCCCCN4CCCCCC4)cc3)o2)cc1 [drawing 57] | –
22.4 | 50.6 | CN(C)CCCOc1ccc(-c2nnc(CSCc3ccc4ccccc4c3)o2)cc1 | –
17.9 | 15.9 | c1ccc(OCCSCc2ncc(-c3ccc(OCCCN4CCCCC4)cc3)o2)cc1 | –
16.1 | 35.4 | CN(C)CCCOc1ccc(-c2nnc(CSCc3cc4ccccc4o3)o2)cc1 | –
13.3 | 9.4 | CN(C)CCOc1ccc(-c2cnc(CSCCOc3ccccc3)o2)cc1 | –
12.9 | 39.6 | CN1CCC[C@@H]1CCOc1ccc(-c2nnc(CSCCOc3ccccc3)o2)cc1 | –
10.4 | 16.2 | CN(C)CCNC(=O)Nc1ccc(-c2nnc(CSCCOc3ccccc3)o2)cc1 | –
10.2 | 16.5 | c1ccc(OCCSCc2ncc(-c3ccc(OCCCN4CCCC4)cc3)o2)cc1 | –
9 | 20 | O=C(NCCN1CCCC1)Nc1ccc(-c2nnc(CSCCOc3ccccc3)o2)cc1 | –
5.8 | 12 | c1ccc(OCCSCc2ncc(-c3ccc(OCCN4CCCC4)cc3)o2)cc1 | –
5.3 | 13.6 | CN(C)CCOc1ccc(-c2nnc(CSCCOc3ccccc3)o2)cc1 [drawing 41] | –
4.3 | 15 | CN(C)CCCOc1ccc(-c2cnc(CSCCOc3ccccc3)o2)cc1 | –
3.7 | 11.6 | CN(C)C/C=C/c1ccc(-c2nnc(CSCCOc3ccccc3)o2)cc1 | –
